In patent US8575091B1, “Amylin analogues and pharmaceutical compositions thereof” (Novo Nordisk A/S, priority 2012, dated 2013):
“Also recorded” adds a separate entry of the source. Numbered stars: 1 amine (or outer) side, 2 acyl side, 3 side chain; on linkers, the order of the positions; unused ones are H or OH. Bridge positions count the residues as written; N and C are the ends. Side chains are listed from the residue outwards. Peptide text beside a SMILES is read from it. * marks the point of attachment. C20 diacid = O=C(O)CCCCCCCCCCCCCCCCCCC(=O)*; γGlu = O=C(O)[C@H](CCC(=O)[*:2])N[*:1]

Columns and labels:
Sprague-Dawley rats = test: Assay (XI) single subcutaneous administration, food intake monitored for 48 hours in rats; assay type: in vivo, rat; conditions: single subcutaneous 30 nmol/kg
Protocol: Assay (XI)—Effect from Single Subcutaneous Administration of Analogue on […] in Rats
Male Sprague-Dawley rats (Taconic Europe, ˜250 g at test date) were acclimatized to reversed day light cycle (lights on from 10 PM to 10 AM) and single housing in online food intake monitoring system (Ellegaard MBRose, Denmark) prior to study start. Rats were divided in groups of five and subcutaneously dosed with test compound (30 nmol/kg) and food intake was monitored for 48 hours hereafter. Data are illustrated in graphs as mean±SEM.

Wistar rats = test: Assay (XII) single subcutaneous administration, plasma calcium in rats; assay type: in vivo, rat; conditions: for Plasma calcium red (%) 0-12 h: single s.c., maximal reduction 0-12 h, compared to vehicle; for suppression of plasma calcium level relative to vehicle: single subcutaneous, over 24 hours
Protocol: Assay (XII)—Effect from Single Subcutaneous Administration of Analogue on Plasma Calcium in Rats
Male Wistar rats (Taconic Europe, ˜250 g at test date) were acclimatized to handling prior to the study. Rats were divided in groups of five and subcutaneously dosed with test compound at time=0. At time T=−15 min; 1 h, 2 h, 4 h, 7 h, 12 h, and 24 h a blood sample was obtained and heparin stabilized plasma was analysed for total calcium (Cobas, Hitachi). Data are illustrated in graphs as mean±SEM.

human amylin receptor = target: T1, human amylin receptor (Homo sapiens, UniProt O60896+P30988); test: Assay (V) binding to the human amylin receptor (SPA, 125I-rat amylin)
T1 construct: expressed in transfected cells
T1 sequence (P30988 25-474): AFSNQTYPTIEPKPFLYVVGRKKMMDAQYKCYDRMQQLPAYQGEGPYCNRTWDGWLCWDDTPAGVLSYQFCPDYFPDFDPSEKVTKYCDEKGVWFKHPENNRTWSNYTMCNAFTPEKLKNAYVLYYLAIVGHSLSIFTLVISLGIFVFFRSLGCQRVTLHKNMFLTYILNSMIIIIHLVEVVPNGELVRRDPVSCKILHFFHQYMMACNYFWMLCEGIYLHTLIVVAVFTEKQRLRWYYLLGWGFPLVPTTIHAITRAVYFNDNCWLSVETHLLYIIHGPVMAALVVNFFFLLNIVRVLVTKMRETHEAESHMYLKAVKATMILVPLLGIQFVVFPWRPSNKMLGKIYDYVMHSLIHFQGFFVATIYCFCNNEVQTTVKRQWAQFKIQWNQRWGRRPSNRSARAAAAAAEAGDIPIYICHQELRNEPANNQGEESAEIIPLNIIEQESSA
T1 sequence (O60896 24-148 partner): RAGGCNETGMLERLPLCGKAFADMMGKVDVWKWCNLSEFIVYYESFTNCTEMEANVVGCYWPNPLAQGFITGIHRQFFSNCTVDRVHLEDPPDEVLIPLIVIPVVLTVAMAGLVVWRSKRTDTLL
Summary of the method: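 SPA competition binding on membranes from Amylin 3(a)/CRE-luc cells, 35 ng/μL membranes with 0.05 mg/well beads. Buffer 50 mM Hepes pH 7.4, 1 mM CaCl2, 5 mM MgCl2, 0.1% OA, 0.02% Tween20. IC50 from one-site competition fit as affinity measure.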

| Ratio hCT/hAmylin binding (human amylin receptor; Table 7b, human calcitonin receptor binding IC50 divided by human amylin receptor binding IC50) | Ratio hCT/hAmylin binding (human amylin receptor; Table 7c, human calcitonin receptor binding IC50 divided by human amylin receptor binding IC50) | Ratio hCT/hAmylin binding (human amylin receptor; human binding ratio, included for comparison) | SMILES | food intake monitored over 48 hours versus vehicle (Sprague-Dawley rats) | Plasma calcium red (%) 0-12 h (Wistar rats; 30 nmol/kg) | suppression of plasma calcium level relative to vehicle (Wistar rats; increasing doses (all doses tested)) | suppression of plasma calcium level relative to vehicle (Wistar rats; 30 nmol/kg) | suppression of plasma calcium level relative to vehicle (Wistar rats; 1000 nmol/kg) | Plasma calcium red (%) 0-12 h (Wistar rats; 3 nmol/kg) |
| --- | --- | --- | --- | --- | --- | --- | --- | --- | --- |
| – | – | – | CC[C@H](C)[C@H](NC(=O)[C@H](C)NC(=O)CNC(=O)[C@H](Cc1ccccc1)NC(=O)[C@H](CC(N)=O)NC(=O)[C@@H]1CCCN1C(=O)[C@H](CO)NC(=O)[C@H](CO)NC(=O)[C@H](Cc1c[nH]cn1)NC(=O)[C@H](CCCNC(=N)N)NC(=O)[C@H](CC(C)C)NC(=O)[C@H](Cc1ccccc1)NC(=O)[C@H](CC(N)=O)NC(=O)[C@H](C)NC(=O)[C@H](CC(C)C)NC(=O)[C@H](CCCNC(=N)N)NC(=O)[C@H](CCC(N)=O)NC(=O)[C@@H](NC(=O)[C@H](C)NC(=O)[C@@H]1CSSC[C@H](NC(=O)[C@@H](N)CCCCNC(=O)CC[C@H](NC(=O)CC[C@H](NC(=O)CCCCCCCCCCCCCCCCCCC(=O)O)C(=O)O)C(=O)O)C(=O)N[C@@H](CC(N)=O)C(=O)N[C@@H]([C@@H](C)O)C(=O)N[C@@H](C)C(=O)N[C@@H]([C@@H](C)O)C(=O)N1)[C@@H](C)O)C(=O)N1CCC[C@H]1C(=O)N[C@@H](CO)C(=O)N[C@@H](CO)C(=O)N[C@H](C(=O)N[C@@H](CC(N)=O)C(=O)N[C@H](C(=O)NCC(=O)N[C@@H](Cc1c[nH]cn1)C(=O)N[C@@H](CC(N)=O)C(=O)N[C@H](C(=O)N[C@@H](Cc1ccc(O)cc1)C(N)=O)[C@@H](C)O)C(C)C)[C@@H](C)O [Example 86] (H-K([γGlu-γGlu-C20 diacid])CNTATCATQRLANFLRHSSPNFGAIPSSTNVGHNTY-NH2; disulfide 2-7 (inferred); N-terminus and C-terminus assumed) | reduces food intake in rats | 0% | None of the doses trigger a notable suppression of the calcium level | – | – | – |
| 28.0 | 28.0 | 28.0 | CC[C@H](C)[C@H](NC(=O)[C@H](C)NC(=O)CNC(=O)[C@H](Cc1ccccc1)NC(=O)[C@H](CC(N)=O)NC(=O)[C@@H]1CCCN1C(=O)[C@H](CO)NC(=O)[C@H](CO)NC(=O)[C@H](Cc1c[nH]cn1)NC(=O)[C@H](CCCNC(=N)N)NC(=O)[C@H](CC(C)C)NC(=O)[C@H](Cc1ccccc1)NC(=O)[C@H](CCC(=O)O)NC(=O)[C@H](C)NC(=O)[C@H](CC(C)C)NC(=O)[C@H](CCCNC(=N)N)NC(=O)[C@H](CCC(N)=O)NC(=O)[C@@H](NC(=O)[C@H](C)NC(=O)[C@@H]1CSSC[C@H](NC(=O)[C@@H](N)CCCCNC(=O)CC[C@H](NC(=O)CC[C@H](NC(=O)CCCCCCCCCCCCCCCCCCC(=O)O)C(=O)O)C(=O)O)C(=O)N[C@@H](CC(N)=O)C(=O)N[C@@H]([C@@H](C)O)C(=O)N[C@@H](C)C(=O)N[C@@H]([C@@H](C)O)C(=O)N1)[C@@H](C)O)C(=O)N1CCC[C@H]1C(=O)N[C@@H](CO)C(=O)N[C@@H](CO)C(=O)N[C@H](C(=O)N[C@@H](CC(N)=O)C(=O)N[C@H](C(=O)NCC(=O)N[C@@H](CO)C(=O)N[C@@H](CCCNC(=N)N)C(=O)N[C@H](C(=O)N[C@@H](Cc1ccc(O)cc1)C(N)=O)[C@@H](C)O)C(C)C)[C@@H](C)O [Example 89] (H-K([γGlu-γGlu-C20 diacid])CNTATCATQRLAEFLRHSSPNFGAIPSSTNVGSRTY-NH2; disulfide 2-7 (inferred); N-terminus and C-terminus assumed) | reduce food intake in rats | 7% | – | None of the example compounds at 30 nmol/kg trigger a notable suppression of the calcium level | more pronounced suppression of the calcium level | – |
| – | – | – | CC[C@H](C)[C@H](NC(=O)[C@H](C)NC(=O)CNC(=O)[C@H](Cc1ccccc1)NC(=O)[C@H](CC(N)=O)NC(=O)[C@@H]1CCCN1C(=O)[C@H](CO)NC(=O)[C@H](CO)NC(=O)[C@H](Cc1c[nH]cn1)NC(=O)[C@H](CCCNC(=N)N)NC(=O)[C@H](CC(C)C)NC(=O)[C@H](Cc1ccccc1)NC(=O)[C@H](CCC(=O)O)NC(=O)[C@H](C)NC(=O)[C@H](CC(C)C)NC(=O)[C@H](CCCNC(=N)N)NC(=O)[C@H](CCC(N)=O)NC(=O)[C@@H](NC(=O)[C@H](C)NC(=O)[C@@H]1CSSC[C@H](NC(=O)[C@@H](N)CCCCNC(=O)CC[C@H](NC(=O)CC[C@H](NC(=O)CCCCCCCCCCCCCCCCCCC(=O)O)C(=O)O)C(=O)O)C(=O)N[C@@H](CC(N)=O)C(=O)N[C@@H]([C@@H](C)O)C(=O)N[C@@H](C)C(=O)N[C@@H]([C@@H](C)O)C(=O)N1)[C@@H](C)O)C(=O)N1CCC[C@H]1C(=O)N[C@@H](CO)C(=O)N[C@@H](CO)C(=O)N[C@H](C(=O)N[C@@H](CC(N)=O)C(=O)N[C@H](C(=O)NCC(=O)N1CCC[C@H]1C(=O)N[C@@H](CCCNC(=N)N)C(=O)N[C@H](C(=O)N[C@@H](Cc1ccc(O)cc1)C(N)=O)[C@@H](C)O)C(C)C)[C@@H](C)O [Example 110] (H-K([γGlu-γGlu-C20 diacid])CNTATCATQRLAEFLRHSSPNFGAIPSSTNVGPRTY-NH2; disulfide 2-7) | reduces food intake in rats | 8% | – | None of the example compounds at 30 nmol/kg trigger a notable suppression of the calcium level | – | – |
| – | – | – | CC(C)C[C@H](NC(=O)[C@H](CCCCN)NC(=O)CNC(=O)[C@H](CC(C)C)NC(=O)[C@@H](NC(=O)[C@@H]1CSSC[C@H](N)C(=O)N[C@@H](CO)C(=O)N[C@@H](CC(N)=O)C(=O)N[C@@H](CC(C)C)C(=O)N[C@@H](CO)C(=O)N[C@@H]([C@@H](C)O)C(=O)N1)C(C)C)C(=O)N[C@@H](CO)C(=O)N[C@@H](CCC(N)=O)C(=O)N[C@@H](CCC(=O)O)C(=O)N[C@@H](CC(C)C)C(=O)N[C@@H](Cc1c[nH]cn1)C(=O)N[C@@H](CCCCN)C(=O)N[C@@H](CC(C)C)C(=O)N[C@@H](CCC(N)=O)C(=O)N[C@H](C(=O)N[C@@H](Cc1ccc(O)cc1)C(=O)N1CCC[C@H]1C(=O)N[C@@H](CCCNC(=N)N)C(=O)N[C@H](C(=O)N[C@@H](CC(N)=O)C(=O)N[C@H](C(=O)NCC(=O)N[C@@H](CO)C(=O)NCC(=O)N[C@H](C(=O)N1CCC[C@H]1C(N)=O)[C@@H](C)O)[C@@H](C)O)[C@@H](C)O)[C@@H](C)O [salmon calcitonin, reference compound] | reduction of food intake; also recorded: reduces food intake in rats | 39% | – | – | – | 35% |
